Measurements from US20120122860A1, “SOLID FORMS OF SULFONAMIDES AND AMINO ACIDS” (Plexxikon, Inc., priority 2009, published 2012).

Tests used:
B-Raf = B-Raf (Homo sapiens, UniProt P15056); test: Kinase activity assay, B-Raf; format: biochemical; details: read-out: activity toward kinase B-Raf, IC50
B-Raf V600E = B-Raf V600E (Homo sapiens, UniProt P15056, V600E); test: Kinase activity assay, B-Raf V600E; format: biochemical; details: read-out: activity toward kinase B-Raf V600E, IC50
Kdr = Kdr (Homo sapiens, UniProt P35968); test: Kinase activity assay, Kdr
Sequence of Kdr (P35968 20-1356): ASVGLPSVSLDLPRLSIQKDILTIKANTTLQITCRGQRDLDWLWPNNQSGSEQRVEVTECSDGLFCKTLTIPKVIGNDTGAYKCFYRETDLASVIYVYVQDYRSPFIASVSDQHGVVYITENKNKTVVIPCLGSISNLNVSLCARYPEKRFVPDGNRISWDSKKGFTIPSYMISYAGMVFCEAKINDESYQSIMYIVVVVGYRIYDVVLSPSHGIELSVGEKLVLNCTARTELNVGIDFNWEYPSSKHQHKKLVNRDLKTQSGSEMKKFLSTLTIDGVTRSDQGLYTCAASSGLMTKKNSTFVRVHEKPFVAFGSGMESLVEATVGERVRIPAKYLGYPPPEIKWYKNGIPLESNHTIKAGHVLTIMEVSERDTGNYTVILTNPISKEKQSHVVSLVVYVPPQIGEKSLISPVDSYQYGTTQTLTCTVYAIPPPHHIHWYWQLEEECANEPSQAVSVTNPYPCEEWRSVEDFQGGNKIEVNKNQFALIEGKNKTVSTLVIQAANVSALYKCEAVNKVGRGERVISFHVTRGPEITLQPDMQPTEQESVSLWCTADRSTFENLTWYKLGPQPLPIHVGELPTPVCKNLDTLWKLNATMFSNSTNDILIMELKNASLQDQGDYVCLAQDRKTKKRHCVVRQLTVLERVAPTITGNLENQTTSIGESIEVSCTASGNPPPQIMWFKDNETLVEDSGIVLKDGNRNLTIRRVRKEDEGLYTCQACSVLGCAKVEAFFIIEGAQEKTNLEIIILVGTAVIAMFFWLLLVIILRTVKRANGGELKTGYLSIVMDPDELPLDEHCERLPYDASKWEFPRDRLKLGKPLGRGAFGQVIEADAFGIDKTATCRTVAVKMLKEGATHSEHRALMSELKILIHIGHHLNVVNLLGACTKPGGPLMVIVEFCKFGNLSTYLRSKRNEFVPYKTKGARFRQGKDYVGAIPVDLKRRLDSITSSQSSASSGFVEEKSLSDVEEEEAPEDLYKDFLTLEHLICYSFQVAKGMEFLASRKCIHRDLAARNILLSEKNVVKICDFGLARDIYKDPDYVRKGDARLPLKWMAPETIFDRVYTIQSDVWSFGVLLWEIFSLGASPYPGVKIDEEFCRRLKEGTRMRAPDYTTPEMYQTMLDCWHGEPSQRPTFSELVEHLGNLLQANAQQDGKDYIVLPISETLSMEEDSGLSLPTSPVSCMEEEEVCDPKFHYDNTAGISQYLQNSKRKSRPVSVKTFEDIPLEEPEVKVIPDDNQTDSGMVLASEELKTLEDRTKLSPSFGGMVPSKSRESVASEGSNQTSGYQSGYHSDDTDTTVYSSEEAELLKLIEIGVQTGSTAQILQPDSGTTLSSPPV

A-Raf = target: T1, A-Raf (Homo sapiens, UniProt P10398); test: Kinase activity assay, A-Raf
T1 sequence (P10398 1-606): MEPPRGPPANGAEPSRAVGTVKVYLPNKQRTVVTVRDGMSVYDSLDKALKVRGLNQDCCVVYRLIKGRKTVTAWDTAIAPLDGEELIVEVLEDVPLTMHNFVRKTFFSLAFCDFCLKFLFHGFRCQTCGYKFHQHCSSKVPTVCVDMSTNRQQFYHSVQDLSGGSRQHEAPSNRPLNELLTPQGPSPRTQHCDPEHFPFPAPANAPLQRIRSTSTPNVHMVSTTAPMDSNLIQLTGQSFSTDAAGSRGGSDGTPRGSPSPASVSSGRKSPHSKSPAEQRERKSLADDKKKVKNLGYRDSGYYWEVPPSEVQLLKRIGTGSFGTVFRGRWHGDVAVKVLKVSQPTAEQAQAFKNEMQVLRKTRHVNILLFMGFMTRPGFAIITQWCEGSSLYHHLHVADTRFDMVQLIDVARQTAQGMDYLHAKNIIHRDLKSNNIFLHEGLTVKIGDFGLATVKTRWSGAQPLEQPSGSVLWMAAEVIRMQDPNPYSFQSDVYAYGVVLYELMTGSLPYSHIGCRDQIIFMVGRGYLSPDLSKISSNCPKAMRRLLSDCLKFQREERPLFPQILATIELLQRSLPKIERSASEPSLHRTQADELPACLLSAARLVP

C-Raf = C-Raf (Homo sapiens, UniProt P04049); test: Kinase activity assay, C-Raf
Sequence of C-Raf (P04049 whole entry): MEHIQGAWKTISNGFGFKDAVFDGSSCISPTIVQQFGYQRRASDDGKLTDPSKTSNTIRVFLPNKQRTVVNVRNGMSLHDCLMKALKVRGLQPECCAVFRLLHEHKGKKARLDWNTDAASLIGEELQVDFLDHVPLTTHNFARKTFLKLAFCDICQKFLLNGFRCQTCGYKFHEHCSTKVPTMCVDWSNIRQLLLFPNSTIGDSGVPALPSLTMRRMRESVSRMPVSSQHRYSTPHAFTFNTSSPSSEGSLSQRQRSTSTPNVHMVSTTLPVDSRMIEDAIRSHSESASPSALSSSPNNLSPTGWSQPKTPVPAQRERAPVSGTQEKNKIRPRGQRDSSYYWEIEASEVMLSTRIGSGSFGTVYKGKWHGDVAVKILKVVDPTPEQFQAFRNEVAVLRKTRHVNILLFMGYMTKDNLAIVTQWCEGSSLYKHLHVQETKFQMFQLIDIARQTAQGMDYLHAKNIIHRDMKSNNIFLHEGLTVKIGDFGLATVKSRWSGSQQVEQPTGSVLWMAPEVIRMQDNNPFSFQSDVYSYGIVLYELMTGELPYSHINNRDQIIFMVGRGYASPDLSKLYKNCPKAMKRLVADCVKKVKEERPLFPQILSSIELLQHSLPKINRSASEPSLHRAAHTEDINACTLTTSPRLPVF

Kit = Kit (Homo sapiens, UniProt P10721); test: Kinase activity assay, Kit
Sequence of Kit (P10721 26-976): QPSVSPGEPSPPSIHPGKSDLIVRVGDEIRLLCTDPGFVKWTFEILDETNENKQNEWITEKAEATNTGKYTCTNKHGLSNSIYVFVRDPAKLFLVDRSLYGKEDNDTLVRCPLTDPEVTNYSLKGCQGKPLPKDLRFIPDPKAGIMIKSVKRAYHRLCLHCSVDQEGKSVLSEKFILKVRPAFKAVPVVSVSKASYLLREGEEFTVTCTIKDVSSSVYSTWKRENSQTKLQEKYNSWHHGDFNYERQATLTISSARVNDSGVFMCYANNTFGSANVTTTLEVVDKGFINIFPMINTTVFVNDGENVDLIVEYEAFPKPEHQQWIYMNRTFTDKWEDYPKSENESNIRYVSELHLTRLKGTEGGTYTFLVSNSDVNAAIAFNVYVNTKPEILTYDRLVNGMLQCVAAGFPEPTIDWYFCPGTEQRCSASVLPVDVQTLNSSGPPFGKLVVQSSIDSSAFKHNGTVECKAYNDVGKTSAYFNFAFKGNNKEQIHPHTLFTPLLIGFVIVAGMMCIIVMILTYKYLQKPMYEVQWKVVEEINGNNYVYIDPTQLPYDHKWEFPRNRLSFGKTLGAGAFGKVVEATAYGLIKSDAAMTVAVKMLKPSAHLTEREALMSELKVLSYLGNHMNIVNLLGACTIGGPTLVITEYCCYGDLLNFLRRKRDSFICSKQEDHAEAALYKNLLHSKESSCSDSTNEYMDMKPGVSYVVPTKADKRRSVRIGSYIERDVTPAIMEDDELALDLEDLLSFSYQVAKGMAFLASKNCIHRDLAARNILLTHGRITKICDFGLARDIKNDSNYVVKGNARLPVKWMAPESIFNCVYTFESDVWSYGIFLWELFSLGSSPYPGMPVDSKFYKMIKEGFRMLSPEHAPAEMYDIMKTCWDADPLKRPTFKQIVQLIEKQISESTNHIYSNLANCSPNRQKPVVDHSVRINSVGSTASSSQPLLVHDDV

Fms = Fms (Homo sapiens, UniProt P07333); test: Kinase activity assay, Fms
Src = Src (Homo sapiens, UniProt P12931); test: Kinase activity assay, Src
Sequence of Src (P12931 whole entry): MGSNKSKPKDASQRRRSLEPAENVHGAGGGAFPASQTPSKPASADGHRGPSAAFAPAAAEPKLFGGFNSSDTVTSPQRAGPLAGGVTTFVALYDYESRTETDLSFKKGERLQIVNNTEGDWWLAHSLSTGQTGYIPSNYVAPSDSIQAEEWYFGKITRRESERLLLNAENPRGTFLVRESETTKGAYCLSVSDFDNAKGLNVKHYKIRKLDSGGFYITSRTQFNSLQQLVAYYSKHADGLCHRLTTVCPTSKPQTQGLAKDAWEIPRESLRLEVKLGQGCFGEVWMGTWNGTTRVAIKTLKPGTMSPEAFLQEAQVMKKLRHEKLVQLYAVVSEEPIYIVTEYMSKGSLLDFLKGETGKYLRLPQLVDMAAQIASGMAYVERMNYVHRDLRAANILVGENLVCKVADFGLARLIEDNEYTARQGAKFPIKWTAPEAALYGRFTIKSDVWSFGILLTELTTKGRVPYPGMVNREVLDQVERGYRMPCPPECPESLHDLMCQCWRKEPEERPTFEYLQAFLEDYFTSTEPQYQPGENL

MAP4K4 = MAP4K4 (Homo sapiens, UniProt O95819); test: Kinase activity assay, MAP4K4

Measured: IC50

Sequence of B-Raf (P15056 whole entry): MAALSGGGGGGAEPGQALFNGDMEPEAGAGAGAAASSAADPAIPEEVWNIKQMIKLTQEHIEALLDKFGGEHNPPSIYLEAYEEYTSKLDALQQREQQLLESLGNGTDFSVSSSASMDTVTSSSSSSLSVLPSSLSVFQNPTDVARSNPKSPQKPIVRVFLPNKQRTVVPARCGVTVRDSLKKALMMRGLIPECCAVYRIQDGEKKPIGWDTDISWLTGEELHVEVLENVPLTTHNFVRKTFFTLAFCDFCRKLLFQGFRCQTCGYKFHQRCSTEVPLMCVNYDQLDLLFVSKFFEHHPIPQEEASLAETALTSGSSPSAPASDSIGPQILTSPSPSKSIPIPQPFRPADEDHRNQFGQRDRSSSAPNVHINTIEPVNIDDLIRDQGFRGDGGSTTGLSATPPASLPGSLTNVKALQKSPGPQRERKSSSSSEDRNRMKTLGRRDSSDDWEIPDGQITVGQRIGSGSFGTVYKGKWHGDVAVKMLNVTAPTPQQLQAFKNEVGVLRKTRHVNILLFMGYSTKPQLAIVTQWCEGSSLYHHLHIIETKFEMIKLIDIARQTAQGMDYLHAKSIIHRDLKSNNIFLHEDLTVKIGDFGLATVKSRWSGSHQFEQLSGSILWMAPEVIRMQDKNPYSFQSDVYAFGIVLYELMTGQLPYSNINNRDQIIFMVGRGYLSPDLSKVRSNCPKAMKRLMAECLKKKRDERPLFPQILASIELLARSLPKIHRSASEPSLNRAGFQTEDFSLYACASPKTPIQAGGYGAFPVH
Sequence of B-Raf V600E (P15056 whole entry V600E): as the sequence (P15056 whole entry) above, with V600E counted along it

O=C(c1c(F)ccc(NS(=O)(=O)C2CCC2)c1F)c1c[nH]c2nccc(Cl)c12 [P-2363, Cyclobutanesulfonic acid [3-(4-chloro-1H-pyrrolo[2,3-b]pyridine-3-carbonyl)-2,4-difluoro-phenyl]-amide]
≤ 10 µM: B-Raf | B-Raf V600E | Kdr | A-Raf | C-Raf

CCCS(=O)(=O)Nc1ccc(F)c(C(=O)c2c[nH]c3nccc(Cl)c23)c1F [P-2208, Propane-1-sulfonic acid [3-(4-chloro-1H-pyrrolo[2,3-b]pyridine-3-carbonyl)-2,4-difluoro-phenyl]-amide]
≤ 10 µM: B-Raf | B-Raf V600E | Kdr | A-Raf | C-Raf

N#Cc1ccnc2[nH]cc(C(=O)c3c(F)ccc(NS(=O)(=O)N4CCOCC4)c3F)c12 [P-2395, Morpholine-4-sulfonic acid [3-(4-cyano-1H-pyrrolo[2,3-b]pyridine-3-carbonyl)-2,4-difluoro-phenyl]-amide]
≤ 10 µM: B-Raf | B-Raf V600E | A-Raf | C-Raf

CC(C)CS(=O)(=O)Nc1ccc(F)c(C(=O)c2c[nH]c3nccc(C#N)c23)c1F [P-2320, 2-Methyl-propane-1-sulfonic acid [3-(4-cyano-1H-pyrrolo[2,3-b]pyridine-3-carbonyl)-2,4-difluoro-phenyl]-amide]
≤ 10 µM: B-Raf | B-Raf V600E | Kdr | A-Raf | C-Raf

CCN(CC)S(=O)(=O)Nc1ccc(F)c(C(=O)c2c[nH]c3ncc(C)cc23)c1F [P-2386, N,N-diethylamino-sulfonic acid [2,4-difluoro-3-(5-methyl-1H-pyrrolo[2,3-b]pyridine-3-carbonyl)-phenyl]-amide]
≤ 10 µM: B-Raf V600E | Kdr | A-Raf

N#Cc1ccnc2[nH]cc(C(=O)c3c(F)ccc(NS(=O)(=O)c4ccc(F)cc4)c3F)c12 [P-2035, N-[3-(4-Cyano-1H-pyrrolo[2,3-b]pyridine-3-carbonyl)-2,4-difluoro-phenyl]-4-fluoro-benzenesulfonamide]
≤ 10 µM: B-Raf | B-Raf V600E | Kit | A-Raf | C-Raf

CCS(=O)(=O)Nc1ccc(F)c(C(=O)c2c[nH]c3nccc(C#N)c23)c1F [P-2283, Ethanesulfonic acid [3-(4-cyano-1H-pyrrolo[2,3-b]pyridine-3-carbonyl)-2,4-difluoro-phenyl]-amide]
≤ 10 µM: B-Raf | B-Raf V600E | A-Raf | C-Raf

CCCC(C)S(=O)(=O)Nc1ccc(F)c(C(=O)c2c[nH]c3ncc(C#N)cc23)c1F (centres unmarked) [P-2314, Pentane-2-sulfonic acid [3-(5-cyano-1H-pyrrolo[2,3-b]pyridine-3-carbonyl)-2,4-difluoro-phenyl]-amide]
≤ 10 µM: B-Raf V600E | Kit | A-Raf | C-Raf

CCC(C)S(=O)(=O)Nc1ccc(F)c(C(=O)c2c[nH]c3ncc(C#N)cc23)c1F (centres unmarked) [P-2317, Butane-2-sulfonic acid [3-(5-cyano-1H-pyrrolo[2,3-b]pyridine-3-carbonyl)-2,4-difluoro-phenyl]-amide]
≤ 10 µM: B-Raf | B-Raf V600E | Kit | A-Raf | C-Raf

CC(C)S(=O)(=O)Nc1ccc(F)c(C(=O)c2c[nH]c3nccc(C#N)c23)c1F [P-2285, Propane-2-sulfonic acid [3-(4-cyano-1H-pyrrolo[2,3-b]pyridine-3-carbonyl)-2,4-difluoro-phenyl]-amide]
≤ 10 µM: B-Raf | B-Raf V600E | A-Raf | C-Raf

N#Cc1ccnc2[nH]cc(C(=O)c3c(F)ccc(NS(=O)(=O)C4CCC4)c3F)c12 [P-2370, Cyclobutanesulfonic acid [3-(4-cyano-1H-pyrrolo[2,3-b]pyridine-3-carbonyl)-2,4-difluoro-phenyl]-amide]
≤ 10 µM: B-Raf | B-Raf V600E | Kdr | A-Raf | C-Raf

CCN(CC)S(=O)(=O)Nc1ccc(F)c(C(=O)c2c[nH]c3ncc(C#N)cc23)c1F [P-2385, N,N-diethylamino-sulfonic acid [3-(5-cyano-1H-pyrrolo[2,3-b]pyridine-3-carbonyl)-2,4-difluoro-phenyl]-amide]
≤ 10 µM: B-Raf V600E | Kdr | A-Raf

N#Cc1ccnc2[nH]cc(C(=O)c3c(F)ccc(NS(=O)(=O)c4cccnc4)c3F)c12 [P-2077, Pyridine-3-sulfonic acid [3-(4-cyano-1H-pyrrolo[2,3-b]pyridine-3-carbonyl)-2,4-difluoro-phenyl]-amide]
≤ 10 µM: B-Raf | B-Raf V600E | A-Raf | C-Raf

CCCS(=O)(=O)Nc1ccc(F)c(C(=O)c2c[nH]c3ncc(-c4ccc(CCCOC)nc4)cc23)c1F [P-2226, Propane-1-sulfonic acid (2,4-difluoro-3-{5-[6-(3-methoxy-propyl)-pyridin-3-yl]-1H-pyrrolo[2,3-b]pyridine-3-carbonyl}-phenyl)-amide]
not listed: A-Raf
≤ 10 µM: all other assays above

CCCS(=O)(=O)Nc1ccc(F)c(C(=O)c2c[nH]c3ncc(CN4CCCC4)cc23)c1F [P-2259, Propane-1-sulfonic acid [2,4-difluoro-3-(5-pyrrolidin-1-ylmethyl-1H-pyrrolo[2,3-b]pyridine-3-carbonyl)-phenyl]-amide]
≤ 10 µM: B-Raf | B-Raf V600E | A-Raf | C-Raf

CCN(CC)S(=O)(=O)Nc1ccc(F)c(C(=O)c2c[nH]c3nccc(Cl)c23)c1F [P-2387, N,N-diethylamino-sulfonic acid [3-(4-chloro-1H-pyrrolo[2,3-b]pyridine-3-carbonyl)-2,4-difluoro-phenyl]-amide]
≤ 10 µM: B-Raf V600E | Kdr | A-Raf

O=C(c1c(F)ccc(NS(=O)(=O)CCC(F)(F)F)c1F)c1c[nH]c2ncc(Cl)cc12 [P-2324, 3,3,3-Trifluoro-propane-1-sulfonic acid [3-(5-chloro-1H-pyrrolo[2,3-b]pyridine-3-carbonyl)-2,4-difluoro-phenyl]-amide]
not listed: A-Raf
≤ 10 µM: all other assays above

O=C(c1cc(NS(=O)(=O)c2ccc(C(F)(F)F)cc2)ccc1F)c1c[nH]c2ncccc12 [P-2119, N-[4-Fluoro-3-(1H-pyrrolo[2,3-b]pyridine-3-carbonyl)-phenyl]-4-trifluoromethyl-benzenesulfonamide]
≤ 10 µM: B-Raf | A-Raf | C-Raf

CCCS(=O)(=O)Nc1ccc(F)c(C(=O)c2c[nH]c3ncc(CN(CC)CC)cc23)c1F [P-2258, Propane-1-sulfonic acid [3-(5-diethylaminomethyl-1H-pyrrolo[2,3-b]pyridine-3-carbonyl)-2,4-difluoro-phenyl]-amide]
≤ 10 µM: B-Raf | B-Raf V600E | A-Raf | C-Raf

CCCS(=O)(=O)Nc1ccc(F)c(C(=O)c2c[nH]c3ncc(CCC(=O)NOC)cc23)c1F [P-2243, 3-{3-[2,6-Difluoro-3-(propane-1-sulfonylamino)-benzoyl]-1H-pyrrolo[2,3-b]pyridin-5-yl}-N-methoxy-propionamide]
≤ 10 µM: B-Raf | B-Raf V600E | Kdr | A-Raf | C-Raf

CCN(CC)S(=O)(=O)Nc1ccc(F)c(C(=O)c2c[nH]c3nccc(C#N)c23)c1F [P-2388, N,N-diethylamino-sulfonic acid [3-(4-cyano-1H-pyrrolo[2,3-b]pyridine-3-carbonyl)-2,4-difluoro-phenyl]-amide]
≤ 10 µM: B-Raf V600E | A-Raf

CCCS(=O)(=O)Nc1ccc(F)c(C(=O)c2c[nH]c3ncc(CCC(=O)N(CC)CC)cc23)c1F [P-2255, 3-{3-[2,6-Difluoro-3-(propane-1-sulfonylamino)-benzoyl]-1H-pyrrolo[2,3-b]pyridin-5-yl}-N,N-diethyl-propionamide]
≤ 10 µM: B-Raf | B-Raf V600E | Kdr | A-Raf | C-Raf
